Experimental data reported in PMC12476453, “Chemosensation of the pheromone spermine by the olfactory TAAR-like receptor TAAR348” (Cell Discovery, 2025).

Target: T1, TAAR348 (Petromyzon marinus, UniProt A0A678XLR1)
T1 construct: TAAR-like GPCR overexpressed in HEK293 cells with Gs BRET2 sensors; cryo-EM complex with Gs (Gαs, Gβ, Gγ), NB35 and ScFv16; construct details only in supplement
T1 sequence (A0A678XLR1 1-348): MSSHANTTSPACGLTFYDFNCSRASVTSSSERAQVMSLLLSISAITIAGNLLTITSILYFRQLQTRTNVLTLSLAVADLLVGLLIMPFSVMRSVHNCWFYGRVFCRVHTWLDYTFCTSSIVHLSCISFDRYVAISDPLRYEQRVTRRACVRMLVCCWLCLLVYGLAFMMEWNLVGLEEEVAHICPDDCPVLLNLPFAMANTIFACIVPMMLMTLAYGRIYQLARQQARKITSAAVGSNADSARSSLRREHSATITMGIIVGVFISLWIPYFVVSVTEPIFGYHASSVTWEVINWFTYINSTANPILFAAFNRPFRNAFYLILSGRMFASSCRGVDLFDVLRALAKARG
Assay: BRET2 G protein trimer dissociation assay (Gs)
Assay type: cell-based

SMILES: NCCCNCCCCNCCCN [spermine]
- EC50: 155 ± 6.9 nM
